# Test results from ChEMBL document CHEMBL1255530, “3D-QSAR CoMFA study of benzoxazepine derivatives as mGluR5 positive allosteric modulators” (Bioorg Med Chem Lett, 2010).
# Biological target: Metabotropic glutamate receptor 5 (Rattus norvegicus, UniProt P31424)
# Assay: Positive allosteric modulation of rat mGluR5 expressed in HEK293 cells
# Chain of Metabotropic glutamate receptor 5 (P31424 whole entry): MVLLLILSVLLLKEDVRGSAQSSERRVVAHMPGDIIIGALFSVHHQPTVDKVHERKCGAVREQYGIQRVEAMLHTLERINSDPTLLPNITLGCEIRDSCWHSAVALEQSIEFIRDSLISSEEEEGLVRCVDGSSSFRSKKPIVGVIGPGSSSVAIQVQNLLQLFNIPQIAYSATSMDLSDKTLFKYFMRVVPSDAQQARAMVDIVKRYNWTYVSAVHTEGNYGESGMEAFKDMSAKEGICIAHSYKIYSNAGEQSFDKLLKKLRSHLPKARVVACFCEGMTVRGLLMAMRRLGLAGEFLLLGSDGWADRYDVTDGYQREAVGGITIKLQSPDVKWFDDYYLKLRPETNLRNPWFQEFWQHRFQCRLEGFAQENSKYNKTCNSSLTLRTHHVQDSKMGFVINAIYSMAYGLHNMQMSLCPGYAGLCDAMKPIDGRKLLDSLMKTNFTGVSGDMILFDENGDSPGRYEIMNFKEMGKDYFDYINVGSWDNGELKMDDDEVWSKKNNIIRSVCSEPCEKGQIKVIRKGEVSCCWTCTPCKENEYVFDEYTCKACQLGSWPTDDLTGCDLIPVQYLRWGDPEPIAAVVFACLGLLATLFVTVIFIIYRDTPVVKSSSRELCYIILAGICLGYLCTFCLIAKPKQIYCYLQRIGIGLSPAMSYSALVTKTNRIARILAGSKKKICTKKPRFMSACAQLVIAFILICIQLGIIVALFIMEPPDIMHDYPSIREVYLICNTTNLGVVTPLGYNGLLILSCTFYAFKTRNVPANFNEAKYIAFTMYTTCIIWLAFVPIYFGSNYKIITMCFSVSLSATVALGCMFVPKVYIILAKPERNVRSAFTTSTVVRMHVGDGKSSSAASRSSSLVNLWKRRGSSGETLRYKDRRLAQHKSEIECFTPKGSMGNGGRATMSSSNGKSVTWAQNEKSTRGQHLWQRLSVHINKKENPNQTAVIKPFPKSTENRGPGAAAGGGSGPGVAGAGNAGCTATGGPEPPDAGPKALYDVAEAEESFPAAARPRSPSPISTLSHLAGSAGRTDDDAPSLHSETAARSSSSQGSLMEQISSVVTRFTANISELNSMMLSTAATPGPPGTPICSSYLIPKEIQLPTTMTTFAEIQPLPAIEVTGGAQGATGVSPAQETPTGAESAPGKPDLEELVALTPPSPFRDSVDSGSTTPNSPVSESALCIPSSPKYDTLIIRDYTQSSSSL
row,EC50,SMILES
1,3.98 µM,CCCCSc1nnc2c(n1)O[C@@H](CC)N(C(C)=O)c1ccccc1-2
2,1.26 µM,C=CCSc1nnc2c(n1)O[C@@H](c1ccc(OC(C)=O)c(OCC)c1)N(C(C)=O)c1ccccc1-2
3,3.31 µM,CSc1nnc2c(n1)O[C@@H](c1cccc(OCc3ccccc3)c1)N(C(C)=O)c1ccccc1-2
4,2.19 µM,CCC(=O)N1c2ccccc2-c2nnc(SC)nc2O[C@H]1c1ccc(OC)cc1
5,0.759 µM,CCC(=O)N1c2ccccc2-c2nnc(SC)nc2O[C@H]1c1cc(Cl)ccc1OC
6,1.32 µM,C=CCSc1nnc2c(n1)O[C@@H](c1ccccc1OCCC)N(C(C)=O)c1ccccc1-2
7,7.41 µM,CCC(=O)N1c2ccccc2-c2nnc(SC)nc2O[C@H]1c1ccccn1
8,0.871 µM,CCC(=O)N1c2ccccc2-c2nnc(SC)nc2O[C@H]1c1ccc(Cl)cc1
9,1.1 µM,CCC(=O)N1c2ccccc2-c2nnc(SC)nc2O[C@H]1c1ccc(OC)c(Br)c1
10,0.813 µM,CCSc1nnc2c(n1)O[C@@H](c1ccco1)N(C(=O)CC)c1ccccc1-2
11,3.89 µM,CCCC(=O)N1c2ccccc2-c2nnc(SC)nc2O[C@H]1c1cccnc1
12,1.02 µM,C=CCSc1nnc2c(n1)O[C@@H](c1ccco1)N(C(C)=O)c1ccccc1-2
13,0.813 µM,CCSc1nnc2c(n1)O[C@@H](c1cc(Br)ccc1OC)N(C(=O)CC)c1ccccc1-2
14,3.47 µM,CSc1nnc2c(n1)O[C@@H](c1ccccc1F)N(C(C)=O)c1ccccc1-2
15,2.24 µM,CCCC(=O)N1c2ccccc2-c2nnc(SC)nc2O[C@H]1c1ccc(C(=O)OC)cc1
16,1.78 µM,CCC(=O)N1c2ccccc2-c2nnc(SC)nc2O[C@H]1c1ccccc1F
17,2.19 µM,CCOC(=O)COc1ccccc1[C@@H]1Oc2nc(SC)nnc2-c2ccccc2N1C(=O)CC
18,0.398 µM,CCSc1nnc2c(n1)O[C@@H](c1ccccc1F)N(C(C)=O)c1ccccc1-2
19,1.41 µM,CCC(=O)N1c2ccccc2-c2nnc(SC)nc2O[C@H]1c1ccc(I)o1
20,1.23 µM,CCSc1nnc2c(n1)O[C@@H](c1ccc(SC)cc1)N(C(=O)CC)c1ccccc1-2
21,5.75 µM,CCC(=O)Oc1ccc(Br)c([C@@H]2Oc3nc(SC)nnc3-c3ccccc3N2C(=O)CC)c1
